# Experiments:
# human α-thrombin = human α-thrombin (Homo sapiens (Human), UniProt P00734); assay: Enzymatic Assay for Thrombin (Boc-VPR-AMC); type: biochemical
# MASP-2 CCP2-SP = MASP-2 CCP2-SP (Homo sapiens (Human), UniProt O00187); assay: MASP-2 co-crystallization, X-ray crystallography and structure analysis (H-bonds, van der Waals contacts); parameters: van der Waals contact distance, MASP-2 HIS 483 atom CD2 / van der Waals contact distance, MASP-2 HIS 483 atom NE2 / van der Waals contact distance, SER 654 C to compound atom / van der Waals contact distance, SER 654 O to compound atom / van der Waals contact distance, TRP 655 C to compound atom / van der Waals contact distance, MASP-2 GLY 528 atom CA / van der Waals contact distance TRP 655 atom CZ3 / van der Waals contact distance TRP 655 atom N / van der Waals contact distance TRP 655 atom CE3 / van der Waals contact distance GLY 656 atom C / van der Waals contact distance GLY 656 atom CA / van der Waals contact distance GLY 656 atom O / van der Waals contact distance, MASP-2 TYR 607 atom CD1 / van der Waals contact distance, MASP-2 PRO 606 atom O / d(C3,CA1) / d(CA1,N1)2 / d(H4,O1) / d(H4,O2) / d(O1,O2) / d(CA1,O2) / d(CA6,O1) / d(CA6,O2) / d(CA1,C5) / d(O2,H3) / d(N2,C2) / d(CA5,N2) / d(N2,C4) / d(N2,C6) / d(N2,CA3) / d(N2,O3) / d(O4,H2): unit not given beside the values;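 for Ligand-pharmacophore element distance, pharmacophore element C2: distance from averaged pharmacophore element to bound ligand; missing value means element absent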;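 for Ligand-pharmacophore element distance, pharmacophore element C3: distance from averaged pharmacophore element to bound ligand; missing value means element absent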;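 for Ligand-pharmacophore element distance, pharmacophore element C4: distance from averaged pharmacophore element to bound ligand; missing value means element absent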;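 for Ligand-pharmacophore element distance, pharmacophore element C5: distance from averaged pharmacophore element to bound ligand; missing value means element absent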
# In short: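 Soaked crystals of recombinant CCP2-SP (E. coli) yield the structures, phased by molecular replacement on 1Q3X pieces. Hydrophobic or nonbonded contacts can also cover atom pairs that are potential hydrogen bonds.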
# [1] = Table A5-1 pharmacophore: distance between elements, S2/S1 region
# [2] = Table A5-2 pharmacophore distance, S3/S4 region
# [3] = Table A7-1, between pharmacophore elements of the bound compound
# [4] = Table A8-6, nearest protein atom in cell to the left
# Sequence of MASP-2 CCP2-SP (O00187 445-686): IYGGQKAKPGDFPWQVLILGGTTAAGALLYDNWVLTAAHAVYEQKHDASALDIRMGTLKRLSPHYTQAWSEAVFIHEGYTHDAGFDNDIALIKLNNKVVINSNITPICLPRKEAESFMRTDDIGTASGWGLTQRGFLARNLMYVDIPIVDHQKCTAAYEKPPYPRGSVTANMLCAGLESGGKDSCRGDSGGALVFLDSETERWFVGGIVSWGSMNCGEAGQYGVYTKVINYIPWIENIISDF
# Sequence of MASP-2 CCP2-SP (O00187 364-432 partner): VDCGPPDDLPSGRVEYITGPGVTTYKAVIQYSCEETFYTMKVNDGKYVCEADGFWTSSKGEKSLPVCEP
smiles,measurement,setting,value
C[C@H](NC(=O)[C@H](N)C1Cc2ccccc2C1)C(=O)NCc1ccc2nc(N)[nH]c2c1 [compound 1059],Ki,human α-thrombin,> 25 µM
same,H-bond distance to MASP-2 ASP 627 atom OD1,"MASP-2 CCP2-SP; Table A1 (H-Bonds), ASP 627 OD1",2.99
same,H-bond distance to MASP-2 ASP 627 atom OD2,"MASP-2 CCP2-SP; Table A1 (H-Bonds), ASP 627 OD2",2.95
same,H-bond distance to MASP-2 GLN 665 atom O,"MASP-2 CCP2-SP; Table A1 (H-Bonds), GLN 665 O",3.31
same,H-bond distance to MASP-2 GLY 656 atom N,"MASP-2 CCP2-SP; Table A1 (H-Bonds), GLY 656 N",3.13
same,H-bond distance to MASP-2 GLY 656 atom O,"MASP-2 CCP2-SP; Table A1 (H-Bonds), GLY 656 O",2.94
same,H-bond distance to MASP-2 SER 654 atom O,"MASP-2 CCP2-SP; Table A1 (H-Bonds), SER 654 O",2.95
same,H-bond distance to MASP-2 SER 657 atom O,"MASP-2 CCP2-SP; Table A1 (H-Bonds), SER 657 O",2.77
same,H-bond distance to MASP-2 SER 657 atom OG,"MASP-2 CCP2-SP; Table A1 (H-Bonds), SER 657 OG",2.94
same,"van der Waals contact distance, MASP-2 HIS 483 atom CD2",MASP-2 CCP2-SP; Table A2-1,3.69
same,"van der Waals contact distance, MASP-2 TYR 607 atom CD1",MASP-2 CCP2-SP; Table A2-4,3.89
same,"van der Waals contact distance, MASP-2 amino acid atom to compound atom","MASP-2 CCP2-SP; Table A2-5: TYR 607 (CE1, CE2, OH), PRO 608 (CD, CG), SER 611 (CA)",3.89
same,"van der Waals contact distance, MASP-2 amino acid atom to compound atom","MASP-2 CCP2-SP; Table A2-9, ARG 630, AA atoms CG, CZ",3.14
same,"van der Waals contact distance, VAL 653 CG1 to compound atom",MASP-2 CCP2-SP; Table A2-11,3.81
same,van der Waals contact distance TRP 655 atom CZ3,"MASP-2 CCP2-SP; Table A2-13, MASP-2 TRP 655 CZ3",3.84
same,van der Waals contact distance TRP 655 atom O,"MASP-2 CCP2-SP; Table A2-13, MASP-2 TRP 655 O",3.88
same,"Ligand-pharmacophore element distance, pharmacophore element C2","MASP-2 CCP2-SP; Table A4-1, element C2",1.86
same,"Ligand-pharmacophore element distance, pharmacophore element C3","MASP-2 CCP2-SP; Table A4-1, element C3",0
same,"Ligand-pharmacophore element distance, pharmacophore element C4","MASP-2 CCP2-SP; Table A4-1, element C4",0
same,"Ligand-pharmacophore element distance, pharmacophore element C5","MASP-2 CCP2-SP; Table A4-1, element C5",0
same,"Ligand-pharmacophore element distance, pharmacophore element C6","MASP-2 CCP2-SP; Table A4-1, element C6",0
same,"Ligand-pharmacophore element distance, pharmacophore element C7","MASP-2 CCP2-SP; Table A4-1, element C7",0
same,"Ligand-pharmacophore element distance, pharmacophore element CA1","MASP-2 CCP2-SP; Table A4-1, element CA1",1.27
same,"Ligand-pharmacophore element distance, pharmacophore element CA2","MASP-2 CCP2-SP; Table A4-1, element CA2",0.8
same,"Ligand-pharmacophore element distance, pharmacophore element CA3","MASP-2 CCP2-SP; Table A4-1, element CA3",0
same,"Ligand-pharmacophore element distance, pharmacophore element CA4","MASP-2 CCP2-SP; Table A4-1, element CA4",0
same,"Ligand-pharmacophore element distance, pharmacophore element CA5","MASP-2 CCP2-SP; Table A4-1, element CA5",0
same,"Ligand-pharmacophore element distance, pharmacophore element CA6","MASP-2 CCP2-SP; Table A4-1, element CA6",0
same,"d(CA1,N1)",MASP-2 CCP2-SP; [1],1.85
same,"d(CA1,O1)",MASP-2 CCP2-SP; [1],5.32
same,"d(CA1,O2)",MASP-2 CCP2-SP; [1],5.00
same,"d(H4,O1)",MASP-2 CCP2-SP; [1],4.89
same,"d(H4,O2)",MASP-2 CCP2-SP; [1],4.48
same,"d(O1,O2)",MASP-2 CCP2-SP; [1],3.20
same,"d(N2,C2)",MASP-2 CCP2-SP; [2],3.70
same,"d(N2,CA2)",MASP-2 CCP2-SP; [2],5.88
same,"d(O2,H3)",MASP-2 CCP2-SP; [2],4.97
same,"d(O2,N2)",MASP-2 CCP2-SP; [2],2.67
same,"a(CA1, O1, O2)",MASP-2 CCP2-SP; Table A6-1 pharmacophore angle,102.43
same,"a(O1, O2, H4)",MASP-2 CCP2-SP; Table A6-1 pharmacophore angle,140.37
same,"A(N1, CA1, O1) a)","MASP-2 CCP2-SP; Table A6-1 pharmacophore angle, all compounds with protonatable center N1 except Methyl-amino-pyridine",176.16
same,"a(O1, O2, H3)",MASP-2 CCP2-SP; Table A6-2 pharmacophore angle,148.70
same,"a(O1, O2, N2)",MASP-2 CCP2-SP; Table A6-2 pharmacophore angle,132.46
same,"a(O2, N2, C2)",MASP-2 CCP2-SP; Table A6-2 pharmacophore angle,139.14
same,"a(O2, N2, CA2)",MASP-2 CCP2-SP; Table A6-2 pharmacophore angle,153.47
same,"Pharmacophore torsion angle a(H4, O1, O2, H3)",MASP-2 CCP2-SP; [3],47.74
same,"Pharmacophore torsion angle a(H4, O1, O2, N2)",MASP-2 CCP2-SP; [3],121.97
same,"Pharmacophore torsion angle a(N1, CA1, O2, H4)",MASP-2 CCP2-SP; [3],−131.19
same,"Pharmacophore torsion angle a(O1, H4, O2, CA1)",MASP-2 CCP2-SP; [3],−89.48
same,"Pharmacophore torsion angle a(O1, O2, N2, C2)",MASP-2 CCP2-SP; [3],129.30
same,"Pharmacophore torsion angle a(O1, O2, N2, CA2)","MASP-2 CCP2-SP; Table A7-2, between pharmacophore elements of the bound compound",134.69
same,Pharmacophore protein distance to MET_658 (first MET_658 column),"MASP-2 CCP2-SP; Table A8-6, 6th residue column, nearest protein atom in cell to the left",1.94
same,Pharmacophore protein distance to GLY_528,MASP-2 CCP2-SP; [4],3.81
same,Pharmacophore protein distance to PHE_529,MASP-2 CCP2-SP; [4],2.97
same,Pharmacophore protein distance to PRO_608,MASP-2 CCP2-SP; [4],3.70
same,Pharmacophore protein distance to SER_611,MASP-2 CCP2-SP; [4],2.61
same,Pharmacophore protein distance to TRP_655,"MASP-2 CCP2-SP; Table A8-6, pharmacophore elements C6, CA3, O3, H1, nearest protein atom in cell to the left",3.64
